Measurements from patent US20250154188A1, “C-GLYCOSIDES AS ANTI-INFLAMMATORY AGENTS” (UNIVERSITY OF PITTSBURGH - OF THE COMMONWEALTH SYSTEM OF …, priority 2022, published 2025).

Assays:
mice with NEC [1] = assay: Mouse NEC model, ileal inflammation marker mRNA (qRT-PCR); assay type: in vivo; settings: neonatal mice, oral gavage 10 mg per kg body weight per day during NEC induction; FIG. 3-7
From the text: Mouse NEC model. Experimental NEC was induced in a well validated and reproducible model in 7-day-old mice of either gender, which were randomly divided into control and test groups, by gavage feeding newborn mice with formula containing Similac Advance infant formula (Abbott Nutrition): Esbilac (PetAg) canine milk replacer, 2:1 ratio, which was supplemented with enteric bacteria made from a stock created from a specimen obtained from an infant with surgical NEC five times per day. Additionally, the mice were subjected to hypoxia (5% O2-95% N2) for 10 min in a hypoxia chamber (Billups-Rothenberg) twice daily for 4 days. The C34 analogues were administered by oral gavage during the induction of NEC at the dose of 10 mg per kg body weight per day. […]
RNA isolation, cDNA synthesis and qPCR. Total RNA was isolated using the RNeasy mini kit (Qiagen) and complementary DNA was synthesized from 0.5 μg RNA using QuantiTect Reverse Transcription kit (Qiagen) following the manufacturer's protocols. The mRNA quantification was performed on the Bio-Rad CFX96 Real-Time System (Bio-Rad) using iTaq™ universal SYBR® Green supermix (Bio-Rad) and Bio-Rad CFX Manager 3.1 software was used to collect data from qRT-PCR. […]
Statistical Analysis. Transcript levels for inflammatory biomarkers were assessed by performing a one-way ANOVA statistical analysis followed by multiple comparison. […]

mice with NEC [2] = assay: Mouse NEC model, H&E staining of ileal tissue sections; assay type: in vivo; settings: oral gavage 10 mg per kg body weight per day, FIG. 13
From the text: Mouse NEC model. Experimental NEC was induced in a well validated and reproducible model in 7-day-old mice of either gender, which were randomly divided into control and test groups, by gavage feeding newborn mice with formula containing Similac Advance infant formula (Abbott Nutrition): Esbilac (PetAg) canine milk replacer, 2:1 ratio, which was supplemented with enteric bacteria made from a stock created from a specimen obtained from an infant with surgical NEC five times per day. Additionally, the mice were subjected to hypoxia (5% O2-95% N2) for 10 min in a hypoxia chamber (Billups-Rothenberg) twice daily for 4 days. The C34 analogues were administered by oral gavage during the induction of NEC at the dose of 10 mg per kg body weight per day. Age-matched breast milk-fed mouse pups were used as non-NEC controls. The relative mRNA expression levels of Toll-like receptor 4 (Tlr4) (FIG. 3), interleukin 6 (Il6) (FIG. 4), interleukin 1 beta (Il1b) (FIG. 5), tumor necrosis factor (Tnf) (FIG. 6) and lipocalin 2 (Lcn2) (FIG. 7) were shown.
Hematoxylin and eosin (H&E) staining. […]

CC(C)CC1OC(COC(=O)CC(C)(C)C)C(OC(=O)CC(C)(C)C)C(OC(=O)CC(C)(C)C)C1OC(=O)CC(C)(C)C (centres unmarked) [Compound C281]
necrotizing enterocolitis inflammation markers Tlr4, Il6, Il1b, Tnf, Lcn2 (relative mRNA expression in ileum) (mice with NEC [1]): robust response
tissue architecture of the intestinal lining (H&E) (mice with NEC [2]): preserve the tissue architecture of the intestinal lining
